In brackets after ≈: the same amount, converted by molar mass. Like-named read-outs stand apart in the source and are kept apart here.
Columns and labels:
K. pneumoniae ATCC 13883 = experiment: Minimum Inhibitory Concentration (MIC) in LB media; type: cell-based, Klebsiella pneumoniae; conditions: Klebsiella pneumoniae, ATCC13883, LB Media
Excerpt: (§1) The compounds of Formula I are of interest due to their potent antibacterial effects. The ability of the invention compounds disclosed herein to achieve an antibacterial effect may be evaluated with regard to their ability to inhibit the growth of bacterial species like Escherichia coli ATCC 25922, Staphylococcus aureus ATCC 29213, Klebsiella pneumoniae ATCC 13883, Acinetobacter baumannii ATCC 19606, Pseudomonas aurigenosa ATCC 27853, Enterococcus faecalis ATCC 29212 and Enterococcus faecalis ATCC 29212 using an assay based on the following Minimum Inhibitory Concentration (MIC) protocol:
(§2) The test bacteria are grown in Luria Bertani Broth (HIMEDIA M1245), 25 grams of the powder is dissolved in 1000 ml distilled water and sterilized by autoclaving at 15 lbs pressure (121° C.) for 20 minutes. The medium sterility is checked by incubating at 37° C. for a period of 48 h.
(§3) Bacterial cultures that are stored as glycerol stocks at −80° C. are sub cultured on LB agar plates to obtain isolated colonies. A single colony of each strain is cultured in LB broth. The cultures are incubated at 37° C., 200 rpm till they reach an optical density (OD at 600 nm) of 0.8 to 1. […] Test compounds are dissolved in dimethyl sulfoxide (DMSO) to a stock concentration of 4 mg/ml. A twofold dilution series of this DMSO stock is prepared in a 96 well V bottom microtitre plate from rows A to H. A 3 μL volume of these dilutions are transferred to a 96-well flat bottom microtitre assay plate. Controls to monitor the effects of DMSO and media sterility are included. Each well is inoculated with 150 μL of the above diluted culture. The plates are incubated at 37° C. overnight in a humidified incubator. The following morning, the plates are read using a Spectrophotometer at 600 nm wavelength. […] The antibacterial activity (MIC) determined against representative Gram positive (S. aureus, E. faecalis) and Gram negative (E. coli, P. aurigenosa, K. pneumoniae and A. baumannii) pathogen were reported Table 1.

S. aureus ATCC 29213 = experiment: Minimum Inhibitory Concentration (MIC) in LB media; type: cell-based, Staphylococcus aureus; conditions: Staphylococcus aureus, ATCC29213, LB Media
Excerpt: as §1, §2, §3

E. faecalis ATCC 29212 = experiment: Minimum Inhibitory Concentration (MIC) in LB media; type: cell-based, Enterococcus faecalis; conditions: Enterococcus faecalis, ATCC29212
Excerpt: as §1, §2, §3

A. baumannii ATCC 19606 = experiment: Minimum Inhibitory Concentration (MIC) in LB media; type: cell-based, Acinetobacter baumannii; conditions: Acinetobacter baumannii, ATCC19606, LB Media
Excerpt: as §1, §2, §3

E. coli ATCC 25922 = experiment: Minimum Inhibitory Concentration (MIC) in LB media; type: cell-based, Escherichia coli; conditions: Escherichia coli, ATCC25922, LB Media
Excerpt: as §1, §2, §3

E. coli DNA gyrase = E. coli DNA gyrase (Escherichia coli, UniProt P0AES4+P0AES6); experiment: biochemical; conditions: supercoiling assay
Sequence of E. coli DNA gyrase (P0AES4 whole entry, one chain of several): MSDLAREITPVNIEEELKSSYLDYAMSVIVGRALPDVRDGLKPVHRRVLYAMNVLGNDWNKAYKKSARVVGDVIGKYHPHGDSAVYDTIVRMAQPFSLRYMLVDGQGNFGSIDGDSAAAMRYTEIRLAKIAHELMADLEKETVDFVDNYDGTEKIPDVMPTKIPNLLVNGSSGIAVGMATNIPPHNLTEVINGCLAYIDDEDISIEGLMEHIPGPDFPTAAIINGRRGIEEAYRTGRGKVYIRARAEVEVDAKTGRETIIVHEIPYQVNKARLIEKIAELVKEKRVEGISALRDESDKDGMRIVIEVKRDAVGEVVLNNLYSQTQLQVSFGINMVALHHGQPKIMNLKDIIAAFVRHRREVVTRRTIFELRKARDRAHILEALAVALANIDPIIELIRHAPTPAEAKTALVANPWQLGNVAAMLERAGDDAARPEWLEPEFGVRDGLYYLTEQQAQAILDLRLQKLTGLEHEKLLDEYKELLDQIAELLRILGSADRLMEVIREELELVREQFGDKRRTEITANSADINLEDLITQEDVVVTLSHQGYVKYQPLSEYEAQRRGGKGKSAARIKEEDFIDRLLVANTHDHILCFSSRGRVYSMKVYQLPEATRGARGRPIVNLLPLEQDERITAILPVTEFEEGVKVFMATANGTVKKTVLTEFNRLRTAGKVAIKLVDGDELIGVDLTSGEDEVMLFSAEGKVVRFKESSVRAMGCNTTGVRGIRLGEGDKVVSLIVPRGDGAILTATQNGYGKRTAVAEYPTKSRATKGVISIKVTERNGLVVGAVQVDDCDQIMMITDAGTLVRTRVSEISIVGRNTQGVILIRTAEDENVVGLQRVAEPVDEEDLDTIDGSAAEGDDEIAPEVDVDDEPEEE

[1] = Mouse intravenous pharmacokinetics; type: in vivo, BALB/c mice; conditions: 2 mg/kg
Protocol: (§4) To assess the Oral and Intravenous pharmacokinetic profile of Example 13, pharmacokinetics (PK) of Example 13 was characterized in BALB/c mice following single intravenous (i.v.) dose of 2 mg/kg and single escalating oral doses of 2, 10, 50 and 100 mg/kg, respectively. This study was performed following all ethical practices as laid down in the guidelines for animal care (Registration number No. 1852/PO/Rc/S/16/CPCSEA). The study was approved by the Institutional Animals Ethics Committee (IAEC) of the test facility. For IVPK in BALB/c mice, the formulation used was DMSO: PEG400: Ethanol: Water (10:20:10:60 v/v) and Example 13 administered as solution. For POPK, the formulation used was 0.1% Tween80 in 0.25% CMC and Example 13 administered as suspension through an oral gavage. The plasma (mice) samples were analyzed by LC-MS/MS. PK parameters were estimated by non-compartmental analysis in Phoenix WinNonlin 6.4 The results of the per-oral and intravenous PK study of Example 13 are presented in Table 4 and 5

[2] = Mouse oral pharmacokinetics; type: in vivo, BALB/c mice; design: AUC/Dose: unit not given beside the values; conditions: for Cmax/dose: in (µg/mL)/(mg/kg)
Protocol: as §4

P. aurigenosa ATCC 27853 = experiment: Minimum Inhibitory Concentration (MIC) in LB media; type: cell-based, Pseudomonas aurigenosa; conditions: Pseudomonas, ATCC27853, LB Media
Excerpt: as §1, §2, §3

[3] = BALB/c, mouse, plasma, iv, mice
[4] = BALB/c, mouse, plasma, mice, single oral dose 2 mg/kg
[5] = BALB/c, mouse, plasma, mice, single oral dose 10 mg/kg
[6] = BALB/c, mouse, plasma, mice, single oral dose 50 mg/kg
[7] = BALB/c, mouse, plasma, mice, single oral dose 100 mg/kg
[8] = mice, single oral dose 10 mg/kg
[9] = mice, single oral dose 50 mg/kg
[10] = mice, single oral dose 100 mg/kg

`CN1C(=O)Cc2ccc(F)c(CCNCCC3CN(c4ccc5c(n4)NC(=O)CO5)C(=O)O3)c21` (single isomer, unassigned) [Example 13, 6-(5-(2-((2-(6-fluoro-1-methyl-2-oxoindolin-7-yl)ethyl)amino)ethyl)-2-oxooxazolidin-3-yl)-2H-pyrido[3,2-b][1,4]oxazin-3(4H)-one] showed an MIC (K. pneumoniae ATCC 13883) of 0.125 µg/mL (≈ 0.266 µM), an MIC (S. aureus ATCC 29213) of 0.03 µg/mL (≈ 0.0639 µM) and an MIC (E. faecalis ATCC 29212) of 0.25 µg/mL (≈ 0.533 µM). The MIC (A. baumannii ATCC 19606) was 0.06 µg/mL (≈ 0.128 µM), the MIC (E. coli ATCC 25922) was 0.06 µg/mL (≈ 0.128 µM) and the IC50 (E. coli DNA gyrase) was 50 nM. For the same compound, the clearance ([1]; BALB/c, mouse, plasma, iv, BALB/c mice, single i.v. dose of 2.0 mg/kg, read-out: systemic clearance (converted)) was 95 mL/min/kg, the Vd ([1]; BALB/c, mouse, plasma, iv, BALB/c mice, single i.v. dose of 2.0 mg/kg, read-out: volume of distribution at steady state) was 13.3 L/kg and the half-life [1, 3] was 1.7 h. For the same compound, the clearance ([1]; BALB/c, mouse, plasma, iv, mice, i.v., read-out: CL (converted)) was 94.8 mL/min/kg, the Vd ([1]; BALB/c, mouse, plasma, iv, mice, i.v., read-out: Vss) was 13.3 L/kg and the AUC(0-inf) [1, 3] was 352 ng·h/mL. The AUC(0-t) [1, 3] was 352 ng·h/mL, the “AUC (% Extrap)” value ([1]; mice, i.v.) was 0.002% and the Ke ([1]; mice, i.v.) was 0.403 h⁻¹. It also gave a t1/2 ([1]; mice, i.v.) of 1.718 h, a Cmax ([2]; BALB/c, mouse, plasma, po, 2 mg/kg, mice, single oral dose 2 mg/kg) of 6 ng/mL and an AUC(0-inf) ([2]; BALB/c, mouse, plasma, po, 2 mg/kg, mice, single oral dose 2 mg/kg, read-out: AUC0-∞) of 70 ng·h/mL. It also gave a half-life ([2]; BALB/c, mouse, plasma, po, 2 mg/kg, mice, single oral dose 2 mg/kg, read-out: t1/2 (converted)) of 5.63 h, a Cmax ([2]; BALB/c, mouse, plasma, po, 10 mg/kg, mice, single oral dose 10 mg/kg) of 108 ng/mL and an AUC(0-inf) ([2]; BALB/c, mouse, plasma, po, 10 mg/kg, mice, single oral dose 10 mg/kg, read-out: AUC0-∞) of 335 ng·h/mL. It also gave a half-life ([2]; BALB/c, mouse, plasma, po, 10 mg/kg, mice, single oral dose 10 mg/kg, read-out: t1/2 (converted)) of 2.13 h, a Cmax ([2]; BALB/c, mouse, plasma, po, 50 mg/kg, mice, single oral dose 50 mg/kg) of 740 ng/mL and an AUC(0-inf) ([2]; BALB/c, mouse, plasma, po, 50 mg/kg, mice, single oral dose 50 mg/kg, read-out: AUC0-∞) of 1970 ng·h/mL. For the same compound, the half-life ([2]; BALB/c, mouse, plasma, po, 50 mg/kg, mice, single oral dose 50 mg/kg, read-out: t1/2 (converted)) was 1.6 h, the AUC(0-inf) ([2]; BALB/c, mouse, plasma, po, 100 mg/kg, BALB/c mice, single oral doses of 2, 10, 50 and 100 mg/kg, read-out: AUC0-∞, range over oral doses) was 70 to 4820 ng·h/mL and the Clast ([2]; BALB/c, mouse, plasma, po, 100 mg/kg, BALB/c mice, single oral doses of 2, 10, 50 and 100 mg/kg, read-out: Cmax, range over oral doses) was 4 to 72 ng/mL. The half-life ([2]; BALB/c, mouse, plasma, po, 100 mg/kg, BALB/c mice, single oral doses of 2, 10, 50 and 100 mg/kg, read-out: t1/2, range over oral doses) was 1.4 to 5.6 h, the Cmax ([2]; BALB/c, mouse, plasma, po, 100 mg/kg, mice, single oral dose 100 mg/kg) was 2380 ng/mL and the AUC(0-inf) ([2]; BALB/c, mouse, plasma, po, 100 mg/kg, mice, single oral dose 100 mg/kg, read-out: AUC0-∞) was 4820 ng·h/mL. For the same compound, the half-life ([2]; BALB/c, mouse, plasma, po, 100 mg/kg, mice, single oral dose 100 mg/kg, read-out: t1/2 (converted)) was 1.42 h, the AUC(0-t) [2, 4] was 70 ng·h/mL and the Tmax [2, 4] was 1 h. It also gave a concentration at 24 h ([2]; BALB/c, mouse, plasma, mice, single oral dose 2 mg/kg, read-out: Clast) of 4 ng/mL, an AUC(0-t) [2, 5] of 311 ng·h/mL and a Tmax [2, 5] of 0.5 h. For the same compound, the concentration at 8 h ([2]; BALB/c, mouse, plasma, mice, single oral dose 10 mg/kg, read-out: Clast) was 9 ng/mL, the AUC(0-t) [2, 6] was 1900 ng·h/mL and the Tmax [2, 6] was 0.5 h. The concentration at 8 h ([2]; BALB/c, mouse, plasma, mice, single oral dose 50 mg/kg, read-out: Clast) was 28 ng/mL, the AUC(0-t) [2, 7] was 4700 ng·h/mL and the Tmax [2, 7] was 1 h. For the same compound, the concentration at 8 h ([2]; BALB/c, mouse, plasma, mice, single oral dose 100 mg/kg, read-out: Clast) was 72 ng/mL, the AUC/Dose ([2]; mice, single oral dose 2 mg/kg) was 0.036 and the F ([2]; mice, single oral dose 2 mg/kg) was 20.6%. The Ke ([2]; mice, single oral dose 2 mg/kg) was 0.123 h⁻¹, the Tlast ([2]; mice, single oral dose 2 mg/kg) was 24 h and the Cmax/dose ([2]; mice, single oral dose 2 mg/kg) was 0.003. The AUC/Dose [2, 8] was 0.034, the F [2, 8] was 19.0% and the Ke [2, 8] was 0.325 h⁻¹. For the same compound, the Tlast [2, 8] was 8 h, the Cmax/dose [2, 8] was 0.011 and the AUC/Dose [2, 9] was 0.039. The F [2, 9] was 22.3%, the Ke [2, 9] was 0.433 h⁻¹ and the Tlast [2, 9] was 8 h. It also gave a Cmax/dose [2, 9] of 0.015, an AUC/Dose [2, 10] of 0.048 and an F [2, 10] of 27.4%. It also gave a Ke [2, 10] of 0.489 h⁻¹, a Tlast [2, 10] of 8 h and a Cmax/dose [2, 10] of 0.024. It also gave a bioavailability ([2]; mouse, plasma, BALB/c mice, single oral doses of 2, 10, 50 and 100 mg/kg, read-out: oral bioavailability, range over oral doses) of 19 to 27% and an MIC (P. aurigenosa ATCC 27853) of 0.5 µg/mL (≈ 1.07 µM).

From patent publication US10711011B2, “Substituted oxazolidines as anti-bacterial agents” (BUGWORKS RESEARCH, INC., priority 2016, dated 2020)
